The series in a line: Cumulative drug release at 24 hours from coated stents (USP type 7 tester, porcine serum). It counts as physicochemical. The note with it: stent coating of everolimus and 75:25 PLGA. Here is the method: As used herein, any measurement of drug release, for example without limitation, release rate, release duration, or substantially released, refers to the an in-vitro measurement using a United States Pharmacopeia Type VII apparatus, using porcine serum with sodium azide optionally added (0.1% w/v) at a temperature of 37° C.
All stents were cleaned by being sonicated in isopropyl alcohol. Stents were coated with a primer layer of approximately 51 μg of 75:25 PLGA (poly(D,L-lactide-co-glycolide) provided by Boehringer Ingelheim, grade RG755S) by spraying from a solution of 2 weight % polymer in 90:10 acetone:methyl isobutyl ketone (w/w). More than one pass under the coater was required to obtain the target weight of polymer on the stent. The spraying operation was carried out with a custom made spray coater equipped with a spray nozzle, a drying nozzle, and a means to rotate and translate the stent under the nozzles with the processing parameters outlined in Table 1. Subsequent to coating, all stents were baked in a forced air convection oven at 140° C. for 30 minutes. […] More than one pass under the coater was required to obtain the target weight of polymer on the stent. The spraying operation was carried out with the same coater used for the primer spraying with the following parameters outlined in Table 2. After the drug layer coating, the stents were baked in a force air convection oven at 50° C. for 1 hour. After baking the coating, the stents were crimped onto 3.0×12 mm XIENCE V catheters, placed in protective tubular coils, and then sealed in Argon filled foil pouches. The stents were not sterilized. Cumulative release of the drug everolimus at 24 hours was determined using a United States Pharmacopeia type 7 tester in porcine serum with sodium azide 0.1% (w/v) added as the dissolution media. Everolimus released into solution was determined by HPLC analysis on the amount of drug remaining on the stent. The cumulative release expressed is one minus the fractional amount of drug remaining divided by the theoretical quantity or dose of drug per stent. In this experiment, the same drug to polymer ratio and the same polymer and drug were used but the spray coating was accomplished with different solvents. In one set of stents, the solvent was 100% acetone while for other stents the solvent was a 50:50 (w/w) mixture of acetone and methyl isobutyl ketone. The cumulative release as measured of drug after 24 hours for n=3 stents is illustrated in FIG. 1.
Stents were cleaned, coated with a primer of 75/25 PLGA, and then coated with a drug layer as described in Example 1 except that the drug to polymer ratio was 1:2 (and therefore the % solids in the coating solution was 3% (w/w)). […]

Consider `CO[C@H]1C[C@@H]2CC[C@@H](C)[C@@](O)(O2)C(=O)C(=O)N2CCCC[C@H]2C(=O)O[C@H]([C@H](C)C[C@@H]2CC[C@@H](OCCO)[C@H](OC)C2)CC(=O)[C@H](C)/C=C(\C)[C@@H](O)[C@@H](OC)C(=O)[C@H](C)C[C@H](C)/C=C/C=C/C=C/1C` [everolimus], for which the “cumulative release at 24 hours” value is listed as “about 96%” (drug:polymer 1:1, sprayed from 50:50 (w/w) acetone:methyl isobutyl ketone, 37° C.); “about 23%” (drug:polymer 1:1, sprayed from 100% acetone, 37° C.); “about 42%” (drug:polymer 1:2 as printed, sprayed from 50:50 (w/w) acetone:dimethyl acetamide); “about 83%” (drug:polymer 1:2 as printed, sprayed from 50:50 acetone:methyl isobutyl ketone).

The record behind these values is patent publication US8562669B2, “Methods of application of coatings composed of hydrophobic, high glass transition polymers with tunable drug release rates” (Abbott Cardiovascular Systems Inc., priority 2008, dated 2013).
